{"source": "patent US20250090435A1", "about": "“PRESERVATIVES FOR COSMETIC AND PHARMACEUTICAL COMPOSITIONS” (priority 2021, published 2025)", "key": {"[1]": {"system": "Staphylococcus epidermidis - code souchier C′", "assay": "Roll-on deodorant challenge test (ISO 11930, odor-causing bacteria)", "type": "cell-based", "details": "addition of 1% in natural roll-on deodorant", "method": "The roll-on deodorant challenge tests shown below were conducted in accordance with ISO 11930 except that formulations were tested with bacteria Corynebacterium xerosis—code souchier M′ and Staphylococcus epidermidis—code souchier C′, which are two of the major odor-causing bacteria found in skin flora. The roll-on deodorant formulations used in the challenge tests are described in Tables 3 and 4 above. A non-preserved formulation without 3-(heptyloxy)propane-1,2-diol was used as a negative control, and the high concentration formulation with 1% 3-(heptyloxy)propane-1,2-diol by weight was tested."}, "[2]": {"system": "microbial growth", "assay": "BIOLUMIX assay to screen for preventing microbial growth", "type": "cell-based", "details": "1% by weight in cleansing wipe, emulsion wipe, cream, shampoo, roll-on deodorant", "source_text": "Efficacy of the compositions in preventing microbial growth were screened with a BIOLUMIX assay. The BIOLUMIX assay produces a color change when carbon dioxide, indicative of microbial contamination, is detected in a sample. Non-preserved formulations without 3-(heptyloxy)propane-1,2-diol were used as negative controls, and formulations were used at particular percentages of 3-(heptyloxy)propane-1,2-diol by weight. Passing criteria is meeting criteria A in Table 5."}, "[3]": {"assay": "Thickening behavior study: viscosity of surfactant systems", "type": "physicochemical", "details": "for Viscosity: 12% AM, NaCl 1, pH 5.5, additive(s) at 1% w/w each; for Viscosity (change after each sequential addition) / Change in viscosity (symbol under Viscosity) / Viscosity (LV3/12 rpm): pH 5.5; for Change in viscosity (symbol under Viscosity) / Viscosity (LV3/12 rpm): 14% AM sodium coco sulfate/decyl glucoside system, additive(s) at 1% each", "method": "Four formulations are shown in the four rightmost columns of Table 14 with ingredients indicated as a percentage by weight. The formulations differ in percentages of sodium chloride, 3-(heptyloxy)propane-1,2-diol, and 3-[(n-octyl)oxy]-1,2-propanediol.\nA thickening behavior study was also performed in another basic surfactant system: Anionic/Non Ionic (APG—alkyl polyglucoside). Each column corresponds to a particular formulation with ingredients listed as a percentage by weight. The remainder was water, represented by Qs. % AM indicates % of active matter (e.g. % of dry surfactant).\nA further thickening behavior study was performed in a different basic surfactant system: anionic/amphoteric (CAPB—Cocamidopropyl betaine). Each column corresponds to a particular formulation with ingredients listed as a percentage by weight. The remainder was water, represented by Qs. % AM indicates % of active matter (e.g. % of dry surfactant).\nA further thickening behavior study was performed to compare sulfated surfactants and sulfate free surfactants. Each column corresponds to a particular formulation with ingredients listed as a percentage by weight. The remainder was water, represented by Qs. % AM indicates % of active matter (e.g. % of dry surfactant). Sodium chloride, 3-(heptyloxy)propane-1,2-diol, and 3-[(n-octyl)oxy]-1,2-propanediol were added sequentially with the change in viscosity measured after each addition and noted in Table 17 below.\nA further thickening behavior study was performed to determine viscosity differences with and without salt (e.g. sodium chloride). Each column corresponds to a particular formulation with ingredients listed as a percentage by weight. The remainder was water, represented by Qs. % AM indicates % of active matter (e.g. % of dry surfactant)."}, "[4]": {"assay": "Skin irritancy and skin sensitization"}, "[5]": {"assay": "Solubility in aqueous systems", "type": "physicochemical", "details": "compared to 3-(heptyloxy)propane-1,2-diol"}, "[6]": {"details": "Ammonium Lauryl Sulfate (ALS) 8/APG 4 system"}, "[7]": {"details": "Ammonium Lauryl Sulfate (ALS) 10/CAPB 2 system"}, "[8]": {"details": "Na Cocoyl Sulfate (SCS) 8/APG 4 system"}, "[9]": {"details": "Na Lauryl Ether Sulfate (SLES) 8/APG 4 system"}, "[10]": {"details": "Na Lauryl Ether Sulfate (SLES) 10/CAPB 2 system"}, "[11]": {"details": "Sulfate free: Na Cocoyl Glutamate 8/Decyl Glucoside 4, 12% AM, added sequentially NaCl 2, 3-(heptyloxy)propane-1,2-diol 1, 3-[(n-octyl)oxy]-1,2-propanediol 1"}, "[12]": {"details": "Sulfate free: Na Cocoyl Glycinate 8/Decyl Glucoside 4, 12% AM, added sequentially NaCl 2, 3-(heptyloxy)propane-1,2-diol 1, 3-[(n-octyl)oxy]-1,2-propanediol 1"}, "[13]": {"details": "Sulfate free: Na Lauroyl Sarcosinate 8/Decyl Glucoside 4, 12% AM, added sequentially NaCl 2, 3-(heptyloxy)propane-1,2-diol 1, 3-[(n-octyl)oxy]-1,2-propanediol 1"}, "[14]": {"details": "Sulfate free: Na Lauryl Glucose Carboxylate 8/Decyl Glucoside 4, 12% AM, added sequentially NaCl 2, 3-(heptyloxy)propane-1,2-diol 1, 3-[(n-octyl)oxy]-1,2-propanediol 1"}, "[15]": {"details": "Sulfate free: Na Lauryl Sulfoacetate 8/Decyl Glucoside 4, 12% AM, added sequentially NaCl 2, 3-(heptyloxy)propane-1,2-diol 1, 3-[(n-octyl)oxy]-1,2-propanediol 1"}, "[16]": {"details": "Sulfated: Ammonium Lauryl Sulfate 8/Decyl Glucoside 4, 12% AM, added sequentially NaCl 1, 3-(heptyloxy)propane-1,2-diol 1, 3-[(n-octyl)oxy]-1,2-propanediol 1"}, "[17]": {"details": "Sulfated: Na Coco Sulfate 8/Decyl Glucoside 4, 12% AM, added sequentially NaCl 1, 3-(heptyloxy)propane-1,2-diol 1, 3-[(n-octyl)oxy]-1,2-propanediol 1"}, "[18]": {"details": "Sulfated: Na Lauryl Ether Sulfate 8/Decyl Glucoside 4, 12% AM, added sequentially NaCl 1, 3-(heptyloxy)propane-1,2-diol 1, 3-[(n-octyl)oxy]-1,2-propanediol 1"}, "[19]": {"details": "Sulfated: Na Lauryl Sulfate 8/Decyl Glucoside 4, 12% AM, added sequentially NaCl 1, 3-(heptyloxy)propane-1,2-diol 1, 3-[(n-octyl)oxy]-1,2-propanediol 1"}}, "data": [{"smiles": "CCCCCCCOCC(O)CO", "note": "(stereo not drawn) [3-(heptyloxy)propane-1,2-diol]", "values": [{"measurement": "speed of logarithmic reduction of bacteria", "setting": "[1]", "value": "increases logarithmic reduction of bacteria such as Staphylococcus faster"}, {"measurement": "microbial growth in products", "setting": "[2]", "value": "successfully blocks microbial growth"}, {"measurement": "Viscosity", "setting": "[3]; [6]", "value": 260, "unit": "cps"}, {"measurement": "Viscosity", "setting": "[3]; [7]", "value": 2500, "unit": "cps"}, {"measurement": "Viscosity", "setting": "[3]; [8]", "value": 130, "unit": "cps"}, {"measurement": "Viscosity", "setting": "[3]; [9]", "value": 50, "unit": "cps"}, {"measurement": "Viscosity", "setting": "[3]; [10]", "value": 200, "unit": "cps"}, {"measurement": "Viscosity (change after each sequential addition)", "setting": "[3]; [11]", "value": "≈"}, {"measurement": "Viscosity (change after each sequential addition)", "setting": "[3]; [12]", "value": "≈"}, {"measurement": "Viscosity (change after each sequential addition)", "setting": "[3]; [13]", "value": "≈"}, {"measurement": "Viscosity (change after each sequential addition)", "setting": "[3]; [14]", "value": "≈"}, {"measurement": "Viscosity (change after each sequential addition)", "setting": "[3]; [15]", "value": "≈"}, {"measurement": "Viscosity (change after each sequential addition)", "setting": "[3]; [16]", "value": "↑+"}, {"measurement": "Viscosity (change after each sequential addition)", "setting": "[3]; [17]", "value": "↑+"}, {"measurement": "Viscosity (change after each sequential addition)", "setting": "[3]; [18]", "value": "↑+"}, {"measurement": "Viscosity (change after each sequential addition)", "setting": "[3]; [19]", "value": "↑"}, {"measurement": "Change in viscosity (symbol under Viscosity)", "setting": "[3]; With 1% NaCl", "value": "↑+"}, {"measurement": "Viscosity (LV3/12 rpm)", "setting": "[3]; With 1% NaCl", "value": 1600, "unit": "cps"}, {"measurement": "Change in viscosity (symbol under Viscosity)", "setting": "[3]; Without Salt", "value": "≈"}, {"measurement": "Viscosity (LV3/12 rpm)", "setting": "[3]; Without Salt, base without additives 70 cps", "value": 80, "unit": "cps"}, {"measurement": "skin irritancy", "setting": "[4]", "value": "reduced/no skin irritancy"}, {"measurement": "skin sensitization", "setting": "[4]", "value": "non-skin sensitizer"}]}, {"smiles": "CCCCCCCCOCC(O)CO", "note": "(stereo not drawn) [3-[(n-octyl)oxy]-1,2-propanediol]", "values": [{"measurement": "solubility in aqueous systems", "setting": "[5]", "value": "lower solubility in aqueous systems"}, {"measurement": "Viscosity", "setting": "[3]; [6]", "value": 550, "unit": "cps"}, {"measurement": "Viscosity", "setting": "[3]; [7]", "value": 3250, "unit": "cps"}, {"measurement": "Viscosity", "setting": "[3]; [8]", "value": 370, "unit": "cps"}, {"measurement": "Viscosity", "setting": "[3]; [9]", "value": 50, "unit": "cps"}, {"measurement": "Viscosity", "setting": "[3]; [10]", "value": 700, "unit": "cps"}, {"measurement": "Viscosity (change after each sequential addition)", "setting": "[3]; [11]", "value": "≈"}, {"measurement": "Viscosity (change after each sequential addition)", "setting": "[3]; [12]", "value": "≈"}, {"measurement": "Viscosity (change after each sequential addition)", "setting": "[3]; [13]", "value": "≈"}, {"measurement": "Viscosity (change after each sequential addition)", "setting": "[3]; [14]", "value": "≈"}, {"measurement": "Viscosity (change after each sequential addition)", "setting": "[3]; [15]", "value": "≈"}, {"measurement": "Viscosity (change after each sequential addition)", "setting": "[3]; [16]", "value": "↑++"}, {"measurement": "Viscosity (change after each sequential addition)", "setting": "[3]; [17]", "value": "↑++"}, {"measurement": "Viscosity (change after each sequential addition)", "setting": "[3]; [18]", "value": "↑++"}, {"measurement": "Viscosity (change after each sequential addition)", "setting": "[3]; [19]", "value": "↑++"}]}, {"smiles": "[Cl-].[Na+]", "note": "[NaCl]", "values": [{"measurement": "Viscosity (change after each sequential addition)", "setting": "[3]; [11]", "value": "≈"}, {"measurement": "Viscosity (change after each sequential addition)", "setting": "[3]; [12]", "value": "↑"}, {"measurement": "Viscosity (change after each sequential addition)", "setting": "[3]; [13]", "value": "≈"}, {"measurement": "Viscosity (change after each sequential addition)", "setting": "[3]; [14]", "value": "≈"}, {"measurement": "Viscosity (change after each sequential addition)", "setting": "[3]; [15]", "value": "≈"}, {"measurement": "Viscosity (change after each sequential addition)", "setting": "[3]; [16]", "value": "↑"}, {"measurement": "Viscosity (change after each sequential addition)", "setting": "[3]; [17]", "value": "↑"}, {"measurement": "Viscosity (change after each sequential addition)", "setting": "[3]; [18]", "value": "↑"}, {"measurement": "Viscosity (change after each sequential addition)", "setting": "[3]; [19]", "value": "↑"}]}, {"smiles": "[Cl-].[Na+]", "note": "[Sodium Chloride]", "values": [{"measurement": "Change in viscosity (symbol under Viscosity)", "setting": "[3]; With 1% NaCl", "value": "↑"}, {"measurement": "Viscosity (LV3/12 rpm)", "setting": "[3]; With 1% NaCl", "value": 280, "unit": "cps"}]}]}
